Measured values from BindingDB's records for doi:10.1021/jm00099a026 (Smithkline Beecham Pharmaceuticals, 1992).

Test: Inhibition of ADP-induced platelet aggregation in canine platelet-rich plasma

| Structure (SMILES) | IC50 |
| --- | --- |
| CN(C(=O)c1ccccc1S)[C@@H](CCCNC(=N)N)C(=O)NCC(=O)N[C@@H](CC(=O)O)C(=O)Nc1ccccc1S | 0.09 µM |
| N=C(N)NCCC[C@@H]1NC(=O)[C@@H]2CCCN2C(=O)[C@@H](Cc2ccccc2)NC(=O)CNC(=O)[C@H](CC(=O)O)NC(=O)CNC1=O | 17.7 µM |
| C[C@H](NC(=O)[C@H](CS)NC(=O)[C@@H]1CCCN1C(=O)[C@H](CO)NC(=O)[C@H](CC(=O)O)NC(=O)CNC(=O)[C@H](CCCNC(=N)N)NC(=O)CNC(=O)[C@@H](NC(=O)CN)C(C)(C)S)C(=O)O | 10.1 µM |
| CC(=O)N[C@@H](CS)C(=O)N(C)[C@H](CCCN=C(N)N)C(=O)NCC(=O)N[C@@H](CC(=O)O)C(=O)N[C@H](C(N)=O)C(C)(C)S | 1.79 µM |
| CC(=O)N[C@@H](CS)C(=O)N(C)[C@@H](CCCN=C(N)N)C(=O)NCC(=O)N[C@@H](CC(=O)O)C(=O)N[C@H](C(N)=O)C(C)(C)S | 0.355 µM |
| CC(=O)N[C@@H](CS)C(=O)N[C@@H](CCCN=C(N)N)C(=O)NCC(=O)N[C@@H](CC(=O)O)C(=O)N[C@@H](C(N)=O)C(C)(C)S | 4.12 µM |
| CC(=O)N[C@@H](CS)C(=O)N[C@@H](CCCNC(=N)N)C(=O)NCC(=O)N[C@@H](CC(=O)O)C(=O)N[C@H](C(N)=O)C(C)(C)S | 20.3 µM |
| CC(=O)N[C@@H](CS)C(=O)N[C@H](CCCN=C(N)N)C(=O)NCC(=O)N[C@@H](CC(=O)O)C(=O)N[C@H](C(N)=O)C(C)(C)S | 4.1 µM |
| N=C(N)NCCC[C@@H]1NC(=O)[C@@H]2CCCN2C(=O)[C@H]2CCCN2C(=O)CNC(=O)[C@H](CC(=O)O)NC(=O)CNC1=O | 5.26 µM |
| N=C(N)NCCC[C@@H]1NC(=O)[C@@H]2CCCN2C(=O)CNC(=O)[C@H]2CCCN2C(=O)[C@H](CC(=O)O)NC(=O)CNC1=O | 76.6 µM |
